Each structure is given as a SMILES string.

For series [1] the following is noted: intramuscular injection; cited from earlier work.
A short description of series [2]: Plasma concentration after oral administration. The series is classed as in vivo, mice. As to conditions: 100 mg/kg in 0.5% CMC suspension p.o.; 0.5 and 4 h; among 14b, 14g, 24a, 24c, 28a, 28c.

In the case of `C[C@]12CC[C@@H]3c4ccc(O)cc4C[C@@H](CCCCCCCCC[S+]([O-])CCCC(F)(F)C(F)(F)F)[C@H]3[C@@H]1CC[C@@H]2O` (stereo partly shown) [Compound 1, fulvestrant], the “lag to reach steady-state concentrations” value in series [1] is 3–6 month.

Regarding `Cc1cc(F)cc(C)c1C(=O)c1sc2cc(O)ccc2c1Oc1ccc(/C=C/C(=O)O)cc1` [Compound 24c], the plasma levels entry in series [2] was “highest plasma levels”.

On to `Cc1ccc(C(=O)c2sc3cc(O)ccc3c2Oc2ccc(/C=C/C(=O)O)cc2)c(C)c1` [Compound 28a, (E)-3-(4-((2-(2,4-dimethylbenzoyl)-6-hydroxybenzo[b]thiophen-3-yl)oxy)phenyl)acrylic acid], for which, in series [2], the plasma levels result is given as “highest plasma levels”.

With `Cc1cc(Cl)cc(C)c1C(=O)c1sc2cc(O)ccc2c1Oc1ccc(/C=C/C(=O)O)cc1` [Compound 28c, (E)-3-(4-((2-(4-chloro-2,6-dimethylbenzoyl)-6-hydroxybenzo[b]thiophen-3-yl)oxy)phenyl)acrylic acid], in series [2], the plasma levels entry is recorded as “highest plasma levels”.

The record behind these values is article PMC5786431 (Journal of medicinal chemistry, 2017).
